Reference: patent publication EP4588908A1, “NEW PROSTACYCLIN FOR TREATING PULMONARY HYPERTENSION” (Shanghai Forefront Pharma Co., Ltd., priority 2023, dated 2025)

What was measured:
male Sprague-Dawley rats [1] = experiment: Hemodynamic measurement (RVSP by right cardiac catheterization) in MCT-modelled PAH rats; type: in vivo
Procedure: (§1) Twenty-eight 7-week-old male Sprague-Dawley rats (average weight of 200-250 g) were purchased from Vital River and were raised at the experimental site for 1 week of acclimatization (temperature 20°C-26°C, humidity 30%-70%, light-dark cycle ratio 1:1) until they were 8 weeks old.
(§2) Twenty-eight rats were randomized into the following 6 groups, including dosing groups, positive control groups, a negative control group and a healthy control group, and each was marked with ear tags.
(§3) • (1) Preparation of monocrotaline (MCT) solution: An adequate amount of MCT was weighed into a 50 mL solution of 20% ethanol-normal saline. After gentle shaking, the solution was transferred to a 50-mL centrifuge tube, and placed tilted in a thermostatic shaker at 37°C, 220 rpm for 12-14 hours to fully dissolve until no visible crystalline particles observed. • (2) Injection of MCT solution: The skin on the dorsal cervical region of the rats was gently lifted, MCT solution was subcutaneously injected at a dose of 60 mg/kg using a 1-mL syringe and the day was recorded as Day 0. • (3) Healthy control: The same volume of normal saline was injected in the same manner.
(§4) According to the concentration of 0.6 mg/mL and 1.2 mg/mL (3-mg/kg/day and 6-mg/kg/day dose groups), appropriate amounts of the test compound were weighed and dissolved in corresponding volume of pure water by shaking to obtain transparent solution, respectively; • (2) The resulting solutions were stored in a 4°C refrigerator. Remove and equilibrate to room temperature before use;
(§5) Starting from Day 14, the rats were weighed daily, and the corresponding solutions (test compound or normal saline) were administered intragastrically according to the grouping protocol until Day 27, for a total of 14 days; the intragastric dose was 0.5 mL/100 g, and the body weight and survival data of the rats were recorded.
On Day 28, the hemodynamic status of the rats was assessed using right cardiac catheterization: • (1) The PE-50 catheter, pressure transducer and pressure measuring workstation were prepared; the tubing was rinsed with heparinized saline to ensure that no bubbles remained in the tubing; the catheter was corrected to zero; • (2) The rats were anesthetized with 2% isoflurane at a flow rate of 2 L/min, and their limbs and incisors were fixed on the operating table with the cranial end to the operator; • (3) The fur on the surgical area of cervical region was shaved; • (4) The cervical skin was cut along the midline, pulled and fixed using hemostats, and the tissue was separated layer by layer using scissors to expose the right internal jugular vein; • (5) The internal jugular vein was bluntly dissected and isolated using hemostats; • (6) The distal end of the internal jugular vein was ligated using 4-0 sutures, and a suture was passed through the proximal end for later use; • (7) A V-shaped incision was made in the internal jugular vein using ophthalmic scissors, and a PE-50 catheter was inserted through the incision. After the catheter was placed, the pre-placed suture at the proximal end of the internal jugular vein was ligated to secure the catheter; • (8) The catheter reached the right atrium and right ventricle in turn; the right atrial pressure and right ventricular pressure were recorded; at least 5 stable waveforms were recorded at each site; 5 continuous waveforms were taken as segments, and more than 2 segments were intercepted to calculate the right ventricular systolic pressure (RVSP); • (9) The PE-50 catheter was removed and the examination was completed.

[2] = Dissolution in water when preparing the test compound solutions; type: physicochemical; details: pure water; 0.6 mg/mL and 1.2 mg/mL gave transparent solution
Procedure: as §4

male Sprague-Dawley rats [3] = experiment: Fulton index measurement RV/(LV+S) in MCT-modelled PAH rats; type: in vivo
Procedure: as §1, §2, §3, §4, §5
The tube was shaken upside down 6-8 times to mix; • (3) The lungs and heart were exposed by further opening the chest cavity; • (4) The left atrial appendage was cut open, a tube of heparinized saline was slowly injected using a 5-mL syringe into the right atrial appendage to flush the pulmonary vessels; • (5) The rat heart, lung, liver, spleen and kidney tissues were kept and frozen, and fixed with formaldehyde solution.
After separating the heart, the non-ventricular parts (such as the atria, blood vessels, and valve rings) were cut off. The intraventricular thrombus was removed as much as possible using forceps. The right ventricle (RV) and left ventricle (LV) + ventricular septum (LV+S) were separated by cutting along tense junction between the RV and interventricular septum (S) using straight scissors. The tissues were dried with gauze and weighed separately. RV/(LV+S) was calculated as the Fulton index. [drawing 107]

[4] = 3 mg/kg/day intragastric from Day 14, MCT 60 mg/kg rats, negative control 63±7.34, healthy control 22±2.41
[5] = 6 mg/kg/day intragastric from Day 14, MCT 60 mg/kg rats, negative control 63±7.34, healthy control 22±2.41
[6] = 3 mg/kg/day intragastric from Day 14, MCT 60 mg/kg rats, RV/(LV+S), negative control 0.61, healthy control 0.29
[7] = 6 mg/kg/day intragastric from Day 14, MCT 60 mg/kg rats, RV/(LV+S), negative control 0.61, healthy control 0.29
[8] = 60(30mpk bid) mg/kg/day, Group 7, same experimental method

Row | SMILES | RVSP mmHg (male Sprague-Dawley rats [1]; [4]) | RVSP mmHg (male Sprague-Dawley rats [1]; 3 mg/kg/day intragastric from Day 14, MCT 60 mg/kg rats, negative control 63±7.34, healthy control 22±2.41, listed as Compound 1M) | RVSP mmHg (male Sprague-Dawley rats [1]; [5]) | RVSP mmHg (male Sprague-Dawley rats [1]; 6 mg/kg/day intragastric from Day 14, MCT 60 mg/kg rats, negative control 63±7.34, healthy control 22±2.41, listed as Compound 1H) | Solubility in water [2] | Fulton index (male Sprague-Dawley rats [3]; [6]) | Fulton index (male Sprague-Dawley rats [3]; 3 mg/kg/day intragastric from Day 14, MCT 60 mg/kg rats, RV/(LV+S), negative control 0.61, healthy control 0.29, listed as Compound 1M) | Fulton index (male Sprague-Dawley rats [3]; [7]) | Fulton index (male Sprague-Dawley rats [3]; 6 mg/kg/day intragastric from Day 14, MCT 60 mg/kg rats, RV/(LV+S), negative control 0.61, healthy control 0.29, listed as Compound 1H) | RVSP mmHg (male Sprague-Dawley rats [1]; 3 mg/kg/day intragastric from Day 14, MCT 60 mg/kg rats, negative control 63±7.34, healthy control 22±2.41, listed as Compound C1M) | RVSP mmHg (male Sprague-Dawley rats [1]; 6 mg/kg/day intragastric from Day 14, MCT 60 mg/kg rats, negative control 63±7.34, healthy control 22±2.41, listed as Compound C1H) | Fulton index (male Sprague-Dawley rats [3]; 3 mg/kg/day intragastric from Day 14, MCT 60 mg/kg rats, RV/(LV+S), negative control 0.61, healthy control 0.29, listed as Compound C1M) | Fulton index (male Sprague-Dawley rats [3]; 6 mg/kg/day intragastric from Day 14, MCT 60 mg/kg rats, RV/(LV+S), negative control 0.61, healthy control 0.29, listed as Compound C1H) | RVSP mmHg (male Sprague-Dawley rats [1]; [8]) | Fulton index (male Sprague-Dawley rats [3]; [8])
1 | CCCCC[C@H](O)CC[C@H]1[C@H](O)[C@@H](CC)[C@@H]2Cc3c(cccc3OCC(=O)O)C[C@@H]21 [Compound 1] | 41 ± 16.27 mmHg | 41±16.27 mmHg | 22 ± 4.36 mmHg | 22+4.36 mmHg | can be directly dissolved in water | 0.37 ± 0.12 | 0.37+0.12 | 0.25 ± 0.27 | 0.25±0.27 |  |  |  |  |  | 
2 | CCCCC[C@H](O)CC[C@@H]1[C@H]2Cc3cccc(OCC(=O)O)c3C[C@H]2C[C@H]1O [Compound C1, Treprostinil sodium 5.5-hydrate] | 46 ± 13.45 mmHg |  | 38 ± 8.86 mmHg |  | can be directly dissolved in water | 0.38 ± 0.10 |  | 0.37 ± 0.07 |  | 46+13.45 mmHg | 38+8.86 mmHg | 0.38+0.10 | 0.37+0.07 |  | 
3 | O=C(O)COC[C@H]1CC[C@H](COC(=O)N(c2ccccc2)c2ccc(Cl)cc2)CC1 [Ralinepag] |  |  |  |  |  |  |  |  |  |  |  |  |  | 22 mmHg | 0.35
